{"source": "ChEMBL document CHEMBL5543174", "about": "“A Nonbactericidal Anionic Antimicrobial Peptide Provides Prophylactic and Therapeutic Efficacies against Bacterial Infections in Mice by Immunomodulatory-Antithrombotic Duality” (J Med Chem, 2024)", "key": {"[1]": {"system": "Serum", "assay": "Immunomodulatory activity in mouse serum assessed as change on C3a level at 25 to 200 ug/ml incubated for 1 hr by ELISA based complement assay", "format": "functional, cell-free", "settings": "dose 25-200 µg/ml"}, "[2]": {"system": "Acinetobacter junii", "assay": "Antimicrobial activity against Acinetobacter junii ATCC 17908 assessed as inhibition of microbial growth at <= 200 ug/ml incubated for 18 hrs by micro-broth dilution method", "format": "functional, organism-based", "settings": "dose <= 200.0 µg/ml"}, "[3]": {"system": "Salmonella paratyphi", "assay": "Antimicrobial activity against Salmonella paratyphi ATCC 9150 assessed as inhibition of microbial growth at <= 200 ug/ml incubated for 18 hrs by micro-broth dilution method", "format": "functional, organism-based", "settings": "Salmonella enterica subsp. enterica serovar Paratyphi A, dose <= 200.0 µg/ml"}, "[4]": {"system": "Staphylococcus aureus", "assay": "Antimicrobial activity against Staphylococcus aureus ATCC 25923 assessed as reduction in metabolic activity at < 200 ug/ml incubated for 1 to 4 hrs by CCK-8 assay", "format": "functional, organism-based", "settings": "dose < 200.0 µg/ml, time 1-4 hrs"}, "[5]": {"system": "Staphylococcus aureus", "assay": "Antibacterial activity against Staphylococcus aureus ATCC 25923 infected in C57BL/6 mouse assessed as reduction in bacterial load at 10 mg/kg,ip pre-administrated 5 hrs before bacterial infection", "format": "functional, organism-based"}, "[6]": {"system": "Staphylococcus aureus", "assay": "Antibacterial activity against Methicillin-resistant Staphylococcus aureus infected in C57BL/6 mouse assessed as reduction in bacterial load at 10 mg/kg,ip pre-administrated 5 hrs before bacterial infection", "format": "functional, organism-based"}, "[7]": {"system": "Escherichia coli", "assay": "Antibacterial activity against Escherichia coli ATCC 25922 infected in C57BL/6 mouse assessed as reduction in TNF-alpha level in peritoneal fluid at 10 mg/kg,ip administrated 5 hrs after bacterial infection measured after 24 hrs by ELISA", "format": "functional, organism-based", "settings": "time 19.0 hrs"}, "[8]": {"system": "Escherichia coli", "assay": "Antibacterial activity against Carbapenem-resistant Escherichia coli infected in C57BL/6 mouse assessed as reduction in IL-6 level in peritoneal fluid at 10 mg/kg,ip pre-administrated 5 hrs before bacterial infection measured after 24 hrs by ELISA", "format": "functional, organism-based", "settings": "time 29.0 hrs"}, "[9]": {"system": "Staphylococcus aureus", "assay": "Antibacterial activity against Staphylococcus aureus ATCC 25923 infected in C57BL/6 mouse assessed as reduction in IL-1beta level in serum at 10 mg/kg,ip pre-administrated 5 hrs before bacterial infection measured after 24 hrs by ELISA", "format": "functional, organism-based", "settings": "time 29.0 hrs"}, "[10]": {"system": "Escherichia coli", "assay": "Antibacterial activity against Escherichia coli ATCC 25922 infected in C57BL/6 mouse assessed as reduction in TNF-alpha level in serum at 10 mg/kg,ip pre-administrated 5 hrs before bacterial infection measured after 24 hrs by ELISA", "format": "functional, organism-based", "settings": "time 29.0 hrs"}, "[11]": {"system": "Escherichia coli", "assay": "Antibacterial activity against Escherichia coli ATCC 25922 infected in C57BL/6 mouse assessed as reduction in IL-6 level in serum at 10 mg/kg,ip pre-administrated 5 hrs before bacterial infection measured after 24 hrs by ELISA", "format": "functional, organism-based", "settings": "time 29.0 hrs"}, "[12]": {"system": "Staphylococcus aureus", "assay": "Antibacterial activity against Methicillin-resistant Staphylococcus aureus infected in C57BL/6 mouse assessed as reduction in TNF-alpha level in serum at 10 mg/kg,ip pre-administrated 5 hrs before bacterial infection measured after 24 hrs by ELISA", "format": "functional, organism-based", "settings": "time 29.0 hrs"}, "[13]": {"system": "Staphylococcus aureus", "assay": "Antibacterial activity against Methicillin-resistant Staphylococcus aureus infected in C57BL/6 mouse assessed as reduction in TNF-alpha level in serum at 10 mg/kg,ip administrated 5 hrs after bacterial infection measured after 24 hrs by ELISA", "format": "functional, organism-based", "settings": "time 19.0 hrs"}, "[14]": {"system": "Escherichia coli", "assay": "Antibacterial activity against Carbapenem-resistant Escherichia coli infected in C57BL/6 mouse assessed as reduction in TNF-alpha level in serum at 10 mg/kg,ip pre-administrated 5 hrs before bacterial infection measured after 24 hrs by ELISA", "format": "functional, organism-based", "settings": "time 29.0 hrs"}, "[15]": {"system": "Escherichia coli", "assay": "Antibacterial activity against Carbapenem-resistant Escherichia coli infected in C57BL/6 mouse assessed as reduction in IL-6 level in serum at 10 mg/kg,ip administrated 5 hrs after bacterial infection measured after 24 hrs by ELISA", "format": "functional, organism-based", "settings": "time 19.0 hrs"}, "[16]": {"system": "Staphylococcus aureus", "assay": "Antibacterial activity against Staphylococcus aureus ATCC 25923 infected in C57BL/6 mouse assessed as reduction in inflammatory injury in lung at 10 mg/kg,ip administrated 5 hrs after bacterial infection measured after 24 hrs by hematoxylin and eosin staining based analysis", "format": "functional, organism-based", "settings": "time 19.0 hrs"}, "[17]": {"system": "Escherichia coli", "assay": "Antibacterial activity against Carbapenem-resistant Escherichia coli infected in C57BL/6 mouse assessed as reduction in inflammatory injury in lung at 10 mg/kg,ip administrated 5 hrs after bacterial infection measured after 24 hrs by hematoxylin and eosin staining based analysis", "format": "functional, organism-based", "settings": "time 19.0 hrs"}, "[18]": {"system": "Staphylococcus aureus", "assay": "Antibacterial activity against Methicillin-resistant Staphylococcus aureus infected in C57BL/6 mouse assessed as increase in survival rate at 10 mg/kg,ip pre-administrated 5 hrs before bacterial infection measured after 7 days", "format": "functional, organism-based", "settings": "time 7.0 day"}, "[19]": {"system": "Peritoneal macrophage cell", "assay": "Induction of chemotaxis in mouse Peritoneal macrophage assessed as increase in macrophage migration at 25 to 100 ug/ml incubated for 8 hrs by crystal violet staining based direct transwell assay", "format": "functional, cell-based", "settings": "dose 25-100 µg/ml"}, "[20]": {"system": "Peritoneal macrophage", "assay": "Induction of chemotaxis in mouse Peritoneal macrophage assessed as upregulation of IL-6 expression at 25 to 100 ug/ml incubated for 6 hrs by ELISA", "format": "functional, cell-based", "settings": "dose 25-100 µg/ml"}, "[21]": {"system": "Peritoneal macrophage", "assay": "Induction of phagocytosis in mouse Peritoneal macrophage assessed as increase in neutral red dye uptake by measuring optical density absorbance at 25 ug/ml incubated for 24 hrs followed by dye addition measured after 4 hrs by absorbance based assay (reference value: 0.089)", "format": "functional", "settings": "dose 25 µg/ml; time 28 hrs"}, "[22]": {"system": "Neutrophil", "assay": "Induction of chemotaxis in mouse bone marrow derived neutrophil assessed as increase in neutrophil migration at 25 to 100 ug/ml incubated for 8 hrs by crystal violet staining based direct transwell assay", "format": "functional, cell-based", "settings": "dose 25-100 µg/ml"}, "[23]": {"system": "Neutrophil", "assay": "Induction of chemotaxis in mouse bone marrow derived neutrophil assessed as increase in neutrophil migration incubated for 8 hrs in presence of macrophage by crystal violet staining based indirect transwell assay", "format": "functional, cell-based"}, "[24]": {"system": "Neutrophil", "assay": "Induction of phagocytosis in mouse bone marrow derived neutrophil cultured with CFSE-labeled Methicillin-resistant Staphylococcus aureus incubated for 1.5 hrs followed by bacterial exposure for 1 hr by flow cytometry", "format": "functional, cell-based", "settings": "time 2.5 hrs"}, "[25]": {"system": "Neutrophil", "assay": "Induction of phagocytosis in mouse bone marrow derived neutrophil cultured with CFSE-labeled Carbapenem-resistant Escherichia coli incubated for 1.5 hrs followed by bacterial exposure for 1 hr by flow cytometry", "format": "functional, cell-based", "settings": "time 2.5 hrs"}, "[26]": {"system": "Peritoneal macrophage", "assay": "Induction of chemotaxis in mouse Peritoneal macrophage assessed as upregulation of CXCL2 production at 100 ug/ml preincubated with MTS510 followed by compound addition by ELISA", "format": "functional, cell-based", "settings": "dose 100.0 µg/ml"}, "[27]": {"system": "Peritoneal macrophage", "assay": "Immunoregulatory activity in mouse Peritoneal macrophage assessed as upregulation of p65 phosphorylation incubated for 1 hr by Western blotting analysis", "format": "functional, cell-based"}, "[28]": {"system": "Mus musculus", "assay": "Anticoagulation activity in mouse infected with Methicillin-resistant Staphylococcus aureus assessed as increase in plasma TFPI expression at 10 mg/kg,ip pre-administrated 5 hrs before bacterial infection measured after 24 hrs by ELISA", "format": "functional, organism-based", "settings": "time 29.0 hrs"}, "[29]": {"system": "Mus musculus", "assay": "Anticoagulation activity in mouse infected with Methicillin-resistant Staphylococcus aureus assessed as increase in plasma AT-III expression at 10 mg/kg,ip pre-administrated 5 hrs before bacterial infection measured after 24 hrs by ELISA", "format": "functional, organism-based", "settings": "time 29.0 hrs"}, "[30]": {"system": "Escherichia coli", "assay": "Antibacterial activity against Carbapenem-resistant Escherichia coli infected in C57BL/6 mouse with clodronate liposome-induced monocyte depletion model assessed as decrease in bacterial burden in peritoneal cavity at 10 mg/kg,ip pre-administrated 5 hrs before bacterial infection measured after 24 hrs", "format": "functional, organism-based", "settings": "time 29.0 hrs"}}, "note": "Calls of active or inactive are those of the source. The calls are words filed in the database; no cut-off is given here."}
{"smiles": "CC[C@H](C)[C@H](NC(=O)[C@@H]1CSSC[C@H](NC(=O)[C@H](CCC(=O)O)NC(=O)[C@@H](NC(=O)[C@H](CCCCN)NC(=O)[C@H](Cc2c[nH]cn2)NC(=O)[C@@H](NC(=O)[C@H](CCCCN)NC(=O)[C@H](CCC(=O)O)NC(=O)[C@H](C)NC(=O)[C@H](CCC(=O)O)NC(=O)[C@H](CCC(=O)O)NC(=O)[C@H](CCC(=O)O)NC(=O)[C@H](C)N)[C@@H](C)O)[C@@H](C)O)C(=O)N[C@@H](CC(C)C)C(=O)N[C@@H](CCC(=O)O)C(=O)N1)C(=O)N[C@@H](Cc1ccccc1)C(=O)N[C@H](C(=O)N[C@@H](CC(C)C)C(=O)N[C@@H](CC(C)C)C(=O)N1CCC[C@H]1C(=O)N1CCC[C@@H]1C(=O)N[C@H](C)C(=O)O)[C@@H](C)O", "values": [{"measurement": "Activity", "setting": "[1]", "result": "inactive"}, {"measurement": "Activity", "setting": "[2]", "result": "inactive"}, {"measurement": "Activity", "setting": "[3]", "result": "inactive"}, {"measurement": "Activity", "setting": "[4]", "result": "inactive"}, {"measurement": "Activity", "setting": "[5]", "result": "Active"}, {"measurement": "Activity", "setting": "[6]", "result": "Active"}, {"measurement": "Activity", "setting": "[7]", "result": "Active"}, {"measurement": "Activity", "setting": "[8]", "result": "Active"}, {"measurement": "Activity", "setting": "[9]", "result": "Active"}, {"measurement": "Activity", "setting": "[10]", "result": "Active"}, {"measurement": "Activity", "setting": "[11]", "result": "Active"}, {"measurement": "Activity", "setting": "[12]", "result": "Active"}, {"measurement": "Activity", "setting": "[13]", "result": "Active"}, {"measurement": "Activity", "setting": "[14]", "result": "Active"}, {"measurement": "Activity", "setting": "[15]", "result": "Active"}, {"measurement": "Activity", "setting": "[16]", "result": "Active"}, {"measurement": "Activity", "setting": "[17]", "result": "Active"}, {"measurement": "Activity", "setting": "[18]", "result": "Active"}, {"measurement": "Activity", "setting": "[19]", "result": "inactive"}, {"measurement": "Activity", "setting": "[20]", "result": "inactive"}, {"measurement": "OD", "setting": "[21]", "result": 0.097}, {"measurement": "Activity", "setting": "[22]", "result": "inactive"}, {"measurement": "Activity", "setting": "[23]", "result": "Dose-Dependent Effect"}, {"measurement": "Activity", "setting": "[24]", "result": "Dose-Dependent Effect"}, {"measurement": "Activity", "setting": "[25]", "result": "Dose-Dependent Effect"}, {"measurement": "Activity", "setting": "[26]", "result": "Active"}, {"measurement": "Activity", "setting": "[27]", "result": "Dose-Dependent Effect"}, {"measurement": "Activity", "setting": "[28]", "result": "Active"}, {"measurement": "Activity", "setting": "[29]", "result": "Active"}, {"measurement": "Activity", "setting": "[30]", "result": "inactive"}]}
